Data as given in paper PMC7576608, “Mechanisms of telomerase inhibition by oxidized and therapeutic dNTPs” (Nature Communications, 2020).
“And” between values parts separate entries of the source, which are not always exact repeats. Equal values may be shown once. Read-outs that look alike come from different tables or passages of the source.

Target: telomerase (Homo sapiens, UniProt O14746)
Assay: Telomerase repeat processivity IC50: modified dNTP titrated into reactions with all four natural dNTPs
Format: biochemical
Set-up: made in house; anti-FLAG immunopurification, eluted with 3xFLAG peptide
Conditions: for YIntercept (line fit of ln(100-%LB) vs # telomere repeats) / ln(100-%LB): n1-n3; for Processivity R 1/2: replicates n1-n3
Description: In order to better understand the ability of modified dNTPs to compete with natural dNTPs for telomerase utilization, we added modified dNTPs to reactions containing all four natural dNTPs. […] The calculated IC50 determines the concentration required to reduce repeat processivity in the bulk reactions by half. However, it is important to note that bulk experiments cannot distinguish effects on individual telomeres, since extended telomeres mask unextended telomeres. Incorporation of a chain terminator during any step will terminate extension of the affected telomere, and just five critically short telomeres are sufficient to trigger senescence. Therefore, repeat processivity IC50 values are not necessarily an indicator of the inhibitory potency, but provide information on selectivity for modified dNTPs compared to natural dNTPs. […] The ability to purify sufficient quantities of tcTERT enables characterization of the catalytic nucleotide addition by pre-steady-state single turnover kinetics using a defined DNA–RNA primer–template substrate. The catalytic efficiency of incorporating a single dNTP is measured by dividing the observed nucleotide incorporation rate constant, kpol, by the equilibrium dissociation constant for dNTP binding to the tcTERT–primer–template complex (Kd)[44].
The reactions were started by the addition of 3 μl of immunopurified telomerase eluent, incubated at 37 °C for 1 h, then terminated with 2 μl of […] and heat inactivated at 65 °C for 20 min. An equal volume of loading buffer (94% formamide, 0.1× TBE, 0.1% bromophenol blue, 0.1% xylene cyanol) was added to the reaction eluent. The samples were heat denatured for 10 min at 100 °C and loaded onto a 14% denaturing acrylamide gel (7 M urea, 1× TBE) and electrophoresed for 90 min at constant 38 W. Samples were imaged using a Typhoon phosphorimager (GE Healthcare). Percent primer extension was calculated with ImageQuant TL 8.2 by measuring the intensity of each product band and dividing by the total radioactivity in the lane or total products, as indicated in the figure legends.
The processivity was calculated as described[40],[67]. Repeat processivity from the direct telomerase extension assays was calculated as R1/2 (equivalent to the half-time for decay in an exponential time course), which represents the median length of DNA product formed, expressed in terms of number of telomere repeats. First, the total volume counts for each product band extend by one or more telomere repeats were obtained using Image Quant TL. The volume counts were then normalized by dividing by the number of radiolabeled guanosines incorporated into the extended products based on the number of repeats added, termed corrected volume (corr vol). The “percent left behind” (%LB) was calculated for each product band by summing the counts for that product band and for every product band below (shorter products), divided by the total counts for the lane, and then multiplied by 100. The natural log of (100−%LB) was calculated and then plotted vs. repeat number for each product length. A linear regression line was fit to the data to determine the slope of the line. The R1/2 value was calculated by dividing −ln(2) by the slope of each fitted line (R1/2 = −ln(2)/slope).
Supplementary Fig 8. IC50 values for telomerase processivity inhibition. Telomerase reactions were conducted with cellular relevant concentrations of all four natural dNTPs and increasing concentrations of the modified dNTP analog from 0 to 10,000 μM to calculate. (a) The natural log of (100-%LB) was plotted vs repeat number. A straight line was fit to the data and the R1/2 value was calculated by dividing –ln(2) by the slope of each line. Plots shown from one experiment are […]

[1] = fit of R 1/2 vs log(concentration), 8-oxo-dATP, replicates N1-N3

telomerase, sequence (O14746 whole entry): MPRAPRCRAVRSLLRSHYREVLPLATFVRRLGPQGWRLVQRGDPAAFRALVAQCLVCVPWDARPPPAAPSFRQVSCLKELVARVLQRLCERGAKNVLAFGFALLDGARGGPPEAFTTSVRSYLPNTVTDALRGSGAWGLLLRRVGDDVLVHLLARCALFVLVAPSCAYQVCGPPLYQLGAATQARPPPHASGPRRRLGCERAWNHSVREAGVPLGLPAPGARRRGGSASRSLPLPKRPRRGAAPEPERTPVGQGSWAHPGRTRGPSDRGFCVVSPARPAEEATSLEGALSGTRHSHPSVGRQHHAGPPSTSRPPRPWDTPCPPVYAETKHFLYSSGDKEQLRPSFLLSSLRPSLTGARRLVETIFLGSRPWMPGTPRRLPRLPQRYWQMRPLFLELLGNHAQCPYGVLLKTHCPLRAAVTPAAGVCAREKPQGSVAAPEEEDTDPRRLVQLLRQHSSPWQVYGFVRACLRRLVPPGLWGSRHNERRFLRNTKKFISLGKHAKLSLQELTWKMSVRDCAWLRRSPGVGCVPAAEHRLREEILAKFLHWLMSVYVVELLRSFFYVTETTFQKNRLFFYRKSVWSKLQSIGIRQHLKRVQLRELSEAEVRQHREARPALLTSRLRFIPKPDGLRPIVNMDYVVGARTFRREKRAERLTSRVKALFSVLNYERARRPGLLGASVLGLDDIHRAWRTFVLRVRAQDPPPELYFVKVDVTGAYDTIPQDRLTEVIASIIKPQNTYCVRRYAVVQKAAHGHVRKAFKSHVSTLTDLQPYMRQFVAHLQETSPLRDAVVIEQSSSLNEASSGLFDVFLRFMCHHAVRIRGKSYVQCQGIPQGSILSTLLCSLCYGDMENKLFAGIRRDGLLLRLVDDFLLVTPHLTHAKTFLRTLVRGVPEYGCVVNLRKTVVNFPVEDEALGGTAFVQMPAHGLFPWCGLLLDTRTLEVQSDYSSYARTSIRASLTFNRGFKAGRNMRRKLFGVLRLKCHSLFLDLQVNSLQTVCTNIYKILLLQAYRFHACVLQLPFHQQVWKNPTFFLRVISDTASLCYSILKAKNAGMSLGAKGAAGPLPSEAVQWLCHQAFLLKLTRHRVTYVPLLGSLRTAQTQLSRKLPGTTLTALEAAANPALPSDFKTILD

## Nc1ncnc2c1[nH]c(=O)n2C1CC(O)C(COP(=O)(O)OP(=O)(O)OP(=O)(O)O)O1 (centres unmarked) [8-oxo-dATP]
8-oxo-dATP 31μM
  YIntercept (line fit of ln(100-%LB) vs # telomere repeats): 3.85 and 3.01 and 3.93
8-oxo-dATP 31μM, telomere repeat 3
  ln(100-%LB): 2.65 and 1.66 and 2.57
8-oxo-dATP 31μM, telomere repeat 4
  ln(100-%LB): 2.41 and 1.27 and 2.30
8-oxo-dATP 31.25 μM
  Processivity R 1/2: 2.10 (2×) and 1.89
8-oxo-dATP 62μM
  YIntercept (line fit of ln(100-%LB) vs # telomere repeats): 3.73 and 4.08 and 3.84
8-oxo-dATP 62μM, telomere repeat 2
  ln(100-%LB): 3.20
8-oxo-dATP 62μM, telomere repeat 3
  ln(100-%LB): 2.53 and 2.54 and 2.74
8-oxo-dATP 62μM, telomere repeat 4
  ln(100-%LB): 2.27 and 2.24 and 2.50
8-oxo-dATP 62μM, telomere repeat 5
  ln(100-%LB): 2.02 and 1.94 and 2.24
8-oxo-dATP 62μM, telomere repeat 6
  ln(100-%LB): 1.71 and 1.56 and 1.91
8-oxo-dATP 62μM, telomere repeat 7
  ln(100-%LB): 1.38 and 1.06 and 1.53
8-oxo-dATP 62μM, telomere repeat 8
  ln(100-%LB): 1.13 and 0.68 and 1.26
8-oxo-dATP 62.5 μM
  Processivity R 1/2: 1.60 (2×) and 2.26
8-oxo-dATP 250μM
  YIntercept (line fit of ln(100-%LB) vs # telomere repeats): 3.94 and 3.80 and 3.85
8-oxo-dATP 250 μM
  Processivity R 1/2: 1.82 (2×) and 2.54
8-oxo-dATP 250μM, telomere repeat 2
  ln(100-%LB): 3.33 and 3.42 and 3.45
8-oxo-dATP 250μM, telomere repeat 3
  ln(100-%LB): 2.64 and 2.77 and 2.84
8-oxo-dATP 250μM, telomere repeat 4
  ln(100-%LB): 2.37 and 2.53 and 2.60
8-oxo-dATP 250μM, telomere repeat 5
  ln(100-%LB): 2.09 and 2.29 and 2.37
8-oxo-dATP 250μM, telomere repeat 6
  ln(100-%LB): 1.75 and 2.02 and 2.10
8-oxo-dATP 250μM, telomere repeat 7
  ln(100-%LB): 1.29 and 1.68 and 1.81
8-oxo-dATP 250μM, telomere repeat 8
  ln(100-%LB): 0.96 and 1.40 and 1.57
8-oxo-dATP 250μM, telomere repeat 9
  ln(100-%LB): 0.67 and 1.15 and 1.32
8-oxo-dATP 500μM
  YIntercept (line fit of ln(100-%LB) vs # telomere repeats): 3.61 and 4.18 and 3.88
8-oxo-dATP 500 μM
  Processivity R 1/2: 1.42 (2×) and 2.03
8-oxo-dATP 500μM, telomere repeat 2
  ln(100-%LB): 3.10 and 3.59 and 3.36
8-oxo-dATP 500μM, telomere repeat 3
  ln(100-%LB): 2.50 and 3.01 and 2.60
8-oxo-dATP 500μM, telomere repeat 4
  ln(100-%LB): 2.24 and 2.80 and 2.29
8-oxo-dATP 500μM, telomere repeat 5
  ln(100-%LB): 1.94 and 2.56 and 2.01
8-oxo-dATP 500μM, telomere repeat 6
  ln(100-%LB): 1.62 and 2.28 and 1.70
8-oxo-dATP 500μM, telomere repeat 7
  ln(100-%LB): 1.26 and 1.91 and 1.22
8-oxo-dATP 500μM, telomere repeat 8
  ln(100-%LB): 0.97 and 1.63 and 0.93
8-oxo-dATP 750μM
  YIntercept (line fit of ln(100-%LB) vs # telomere repeats): 4.26 and 4.00 and 3.87
8-oxo-dATP 750 μM
  Processivity R 1/2: 1.36 (2×) and 2.25
8-oxo-dATP 750μM, telomere repeat 2
  ln(100-%LB): 3.17 and 3.44 and 3.29
8-oxo-dATP 750μM, telomere repeat 3
  ln(100-%LB): 2.50 and 2.85 and 2.65
8-oxo-dATP 750μM, telomere repeat 4
  ln(100-%LB): 2.17 and 2.63 and 2.39
8-oxo-dATP 750μM, telomere repeat 5
  ln(100-%LB): 1.81 and 2.42 and 2.15
8-oxo-dATP 750μM, telomere repeat 6
  ln(100-%LB): 1.40 and 2.17 and 1.87
8-oxo-dATP 1000μM
  YIntercept (line fit of ln(100-%LB) vs # telomere repeats): 4.48 and 4.47 and 4.44
8-oxo-dATP 1000 μM
  Processivity R 1/2: 0.53 (2×) and 0.83
8-oxo-dATP 1500μM
  YIntercept (line fit of ln(100-%LB) vs # telomere repeats): 5.00 and 4.48 and 4.84
8-oxo-dATP 1500 μM
  Processivity R 1/2: 0.00
8-oxo-dATP 2000 μM
  Processivity R 1/2: 0.00
Cellular relevant natural dNTPs, modified dNTP titrated 0 to 10,000 μM, based on repeat processivity, mean ± SD, read-out: Telomerase processivity IC50
  IC50: 946 ± 49 µM
Fit of R 1/2 vs log(concentration μM), 8-oxo-dATP, replicates N1-N3
  LogIC50: 2.95 and 2.99 (2×)
[1]
  Bottom (best-fit value): -0.12 and 0.69 and -0.000954
  HillSlope: -4.30 and -46.77 and -16.13
  Span (best-fit value): 1.94 and 1.65 and 2.29
  Top (best-fit value): 1.81 and 2.33 and 2.29
Log of processivity IC50 (concentration in μM), Supplementary Fig 8b, read-out: Log IC50 (converted)
  IC50: 794 µM
Repeat processivity R 1/2, 8-oxo-dATP, mean of N1-N3, read-out: Mean IC50
  IC50: 946 µM
Repeat processivity R 1/2, 8-oxo-dATP, single replicates N1-N3, read-out: IC50
  IC50: 890 µM and 982 µM and 966 µM
